Assay results: US20230098772A1, “ADVANCED MICROBIOME THERAPEUTICS ENGINEERED TO PRODUCE SEROTONIN IN VIVO” (DANMARKS TEKNISKE UNIVERSITET, priority 2019, published 2023)

B1: mutant GCH1: mutant GTP cyclohydrolase I with T198I substitution encoded by mutated folE gene (protein, UniProt P0A6T5 2-222, looked up, variant T198I)
GTP cyclohydrolase 1: PSLSKEAALVHEALVARGLETPLRPPVHEMDNETRKSLIAGHMTEIMQLLNLDLADDSLMETPHRIAKMYVDEIFSGLDYANFPKITLIENKMKVDEMVTVRDITLTSTCEHHFVTIDGKATVAYIPKDSVIGLSKINRIVQFFAQRPQVQERLTQQILIALQTLLGTNNVAVSIDAVHYCVKARGIRDATSATTTISLGGLFKSSQNTRHEFLRAVRHHN

Columns and labels:
mice [1] = assay: Forced Swim Test after 21 days treatment, comparison with fluoxetine; format: in vivo, mice (C57BL/6); conditions: oN14 10^9 cells oral gavage, fluoxetine 10 mg/kg I.P.
Protocol: 9.1.2 Forced Swim Test: Each mouse was placed in clear cylindrical tanks (30 cm height×20 cm) with 15 cm of water at 23-25° C. for 6 minutes and recorded, as described by Ferguson (2001). Mice were then towel dried and placed under a heat lamp to dry to prevent hypothermia and then placed back in their original cage. Recordings were de-identified and a blinded observer, scored recordings for the time spent immobile during the last 4 minutes of the 6-minute test, as described by Can et al., (2012).
10.1.1 Administration: as described for oral administration in 6.1.1, but with the following modifications: The mice were administered sterile PBS only (PBS) or freshly-grown 10^9 cells of E. coli Nissle strain designated oN14 (E. coli Nissle strain oN comprising pMUT14-ser) in sterile PBS (oN14) by oral gavage. Additionally, the mice were administered a 200 μl intraperitoneal (I.P.) injection of saline or the SSRI, fluoxetine at 10 mg/kg body weight in saline. The mice received the oral and IP administered co-treatments every 24 hrs at the same time of day for 21 days. Accordingly, the four mice treatment groups received: IP: saline/Gavage: PBS (negative control); IP: Fluoxetine/Gavage: PBS (SSRI positive comparator), IP: saline/Gavage: oN14 (oN14 positive comparator); and IP: Fluoxetine/Gavage: oN14 (positive combination comparator). […]

mice [2] = assay: Open Field Test after 21 days treatment, comparison with fluoxetine; format: in vivo, mice (C57BL/6); conditions: oN14 10^9 cells oral gavage, fluoxetine 10 mg/kg I.P.
Protocol: 9.1.3 Open Field Test: Each mouse was placed in a white, open-roof, well lite, 50 cm (length)×50 cm (width)×38 cm (height) chamber and recorded for 10 minutes following previously described methods (Spohn, S. N. et al., 2016). Mice were then placed back into their original cage. Fecal pellets produced during the 10-minute test were counted. Recordings were then post processed and analyzed using BehaviorCloud as previously described (Spohn, S. N. et al., 2016). Mouse tracking software recorded total path of movement of each mouse, total distance traveled, time spent in the inner zone defined as the […] and outer zone defined as the outer 10 cm border closest to the walls, number of times entering the inner zone, and distance traveled within the inner zone.
10.1.1 Administration: as described for oral administration in 6.1.1, but with the following modifications: The mice were administered sterile PBS only (PBS) or freshly-grown 10^9 cells of E. coli Nissle strain designated oN14 (E. coli Nissle strain oN comprising pMUT14-ser) in sterile PBS (oN14) by oral gavage. Additionally, the mice were administered a 200 μl intraperitoneal (I.P.) injection of saline or the SSRI, fluoxetine at 10 mg/kg body weight in saline. The mice received the oral and IP administered co-treatments every 24 hrs at the same time of day for 21 days. Accordingly, the four mice treatment groups received: IP: saline/Gavage: PBS (negative control); IP: Fluoxetine/Gavage: PBS (SSRI positive comparator), IP: saline/Gavage: oN14 (oN14 positive comparator); and IP: Fluoxetine/Gavage: oN14 (positive combination comparator). 24 hours after the last administration, the mice were subjected to motility and behavioral testing.

[3] = test system: 5-HT biosynthetic pathway; assay: In vitro metabolite production by E. coli Nissle strains (LC-MS of culture media); format: cell-based; conditions: strains comprising pMUT10-5htp; vs folE WT; FIG. 5F
Protocol: Strains were grown in a modified M9 medium, containing 1× M9 salts (M6030, Sigma Aldrich), 0.2% (w/v) glucose, 0.1% (w/v) casamino acids (Cat. No. C2000, Teknova), 1 mM MgSO4, 50 μM FeCl3, 0.2% (v/v) 2YT medium (composition see below), and 50 mg/L of L-tryptophan unless stated otherwise. Kanamycin was added at a final concentration of 50 mg/L unless stated otherwise. Three single colonies were picked from each strain, grown in 300 μl medium in 96 deep-well plates and shaken at 250 rpm at 37° C. for 16 hours. The main culture was inoculated by diluting this pre-culture 1:100 into fresh medium, and cells were grown for 24 h under the same conditions. In the case of substrate feeding, TRP and 5-HTP was added to the growth medium in an amount of 100 mg TRP or 5-HTP/L. Afterwards, the culture supernatant was separated from cells using a 0.2 μm pore size filter, and frozen at −20° C. until analysis by LC-MS. […]
Detection of serotonin, tryptamine, tryptophan and 5-HTP were conducted by liquid chromatography mass spectrometry (LC-MS) measurements on a Dionex UltiMate 3000 UHPLC (Fisher Scientific, San Jose, Calif.) connected to an Orbitrap Fusion Mass Spectrometer (Thermo Fisher Scientific, San Jose, Calif.). […] Quantification of the compounds was based on calculations from calibration standards analyzed before and after sets of 24 samples. […]

Row | Molecule | time of immobility in Forced Swim Test (mice [1]) | distance travelled in the inner zone in OFT (mice [2]) | fecal boli produced during the OFT (mice [2]) | time spent in the inner zone in OFT (mice [2]) | total number of entries in the inner zone in OFT (mice [2]) | increase of hydroxylation of tryptophan to 5-hydroxytryptophan catalyzed by human tryptophan 5-hydroxylase [3] [fold]
1 | CNCCC(Oc1ccc(C(F)(F)F)cc1)c1ccccc1 (stereo not drawn) [Fluoxetine] | significantly reduce | increased | reduction | increased | increased | –
2 | B1 | – | – | – | – | – | 4
